Patent US9409917B2, “Heterocyclic amide derivatives as P2X7 receptor antagonists” (ACTELION PHARMACEUTICALS LTD., priority 2012, dated 2016)

Each compound was assayed against human recombinant P2X7 receptor (Homo sapiens (Human), UniProt Q99572) (assay: YO-PRO assay: P2X7 receptor antagonistic activity (ATP-induced YO-PRO-1 uptake, FLIPR)). Details: not given.
human recombinant P2X7 receptor, sequence (Q99572 whole entry): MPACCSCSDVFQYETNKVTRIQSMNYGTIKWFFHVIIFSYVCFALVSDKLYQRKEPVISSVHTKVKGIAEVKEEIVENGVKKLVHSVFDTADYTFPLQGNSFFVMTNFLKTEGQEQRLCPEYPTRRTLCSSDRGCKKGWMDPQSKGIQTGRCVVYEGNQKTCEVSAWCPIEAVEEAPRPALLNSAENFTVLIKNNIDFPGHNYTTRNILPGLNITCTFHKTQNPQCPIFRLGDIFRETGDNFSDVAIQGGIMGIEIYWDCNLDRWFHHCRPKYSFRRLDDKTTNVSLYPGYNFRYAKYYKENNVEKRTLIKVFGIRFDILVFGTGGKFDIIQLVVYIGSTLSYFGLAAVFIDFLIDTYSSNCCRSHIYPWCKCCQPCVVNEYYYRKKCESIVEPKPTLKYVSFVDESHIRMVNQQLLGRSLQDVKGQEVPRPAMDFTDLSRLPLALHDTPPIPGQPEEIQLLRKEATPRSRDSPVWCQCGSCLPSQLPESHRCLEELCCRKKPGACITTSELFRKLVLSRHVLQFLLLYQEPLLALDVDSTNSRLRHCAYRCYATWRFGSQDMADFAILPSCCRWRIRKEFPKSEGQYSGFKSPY
`O=C(NCc1ccc(Cl)cc1Cl)C1COc2ncccc21` (racemic) [Example 5, rac-2,3-Dihydro-furo[2,3-b]pyridine-3-carboxylic acid 2,4-dichloro-benzylamide] was tested, and the IC50 was 59.2 nM.
`O=C(NCC1(O)CCCCC1)C1CCOc2ncccc21` (racemic) [Example 10, rac-3,4-Dihydro-2H-pyrano[2,3-b]pyridine-4-carboxylic acid (1-hydroxy-cyclohexylmethyl)-amide] gave an IC50 of 3170 nM.
`Cc1cc(Cl)cc(Cl)c1CNC(=O)C1(F)COc2ncccc21` (racemic) [Example 11, rac-3-Fluoro-2,3-dihydro-furo[2,3-b]pyridine-3-carboxylic acid 2,4-dichloro-6-methyl-benzylamide] showed an IC50 of 4.8 nM.
In the case of `Cc1cc(Cl)cc(Cl)c1CNC(=O)C1(F)CCOc2ncccc21` (racemic) [Example 12, rac-4-Fluoro-3,4-dihydro-2H-pyrano[2,3-b]pyridine-4-carboxylic acid 2,4-dichloro-6-methyl-benzylamide], the IC50 is reported as 3.1 nM.
`O=C(NCc1c(F)cc(Cl)cc1Cl)C1COc2ncccc21` (racemic) [Example 15, rac-2,3-Dihydro-furo[2,3-b]pyridine-3-carboxylic acid 2,4-dichloro-6-fluoro-benzylamide] was tested, and the IC50 was 66.8 nM.
Work on `O=C(NCc1cccc(C(F)(F)F)c1Cl)C1COc2ncccc21` (racemic) [Example 16, rac-2,3-Dihydro-furo[2,3-b]pyridine-3-carboxylic acid 2-chloro-3-trifluoromethyl-benzylamide] yielded an IC50 of 12.6 nM.
In the case of `O=C(NCc1cccc(Cl)c1Cl)C1(F)COc2ncccc21` (racemic) [Example 20, rac-3-Fluoro-2,3-dihydro-furo[2,3-b]pyridine-3-carboxylic acid 2,3-dichloro-benzylamide], the IC50 is reported as 67.9 nM.
Work on `O=C(NCc1c(Cl)cc(Cl)cc1C1CC1)C1COc2ncccc21` (racemic) [Example 21, rac-2,3-Dihydro-furo[2,3-b]pyridine-3-carboxylic acid 2,4-dichloro-6-cyclopropyl-benzylamide] yielded an IC50 of 12.9 nM.
`CCc1cc(Cl)cc(Cl)c1CNC(=O)C1COc2ncccc21` (racemic) [Example 22, rac-2,3-Dihydro-furo[2,3-b]pyridine-3-carboxylic acid 2,4-dichloro-6-ethyl-benzylamide] gave an IC50 of 1.5 nM.
Compound `C=Cc1cc(Cl)cc(Cl)c1CNC(=O)C1COc2ncccc21` (racemic) [Example 23, rac-2,3-Dihydro-furo[2,3-b]pyridine-3-carboxylic acid 2,4-dichloro-6-vinyl-benzylamide] has an IC50 of 12.2 nM.
For `COc1cc(Cl)cc(Cl)c1CNC(=O)C1COc2ncccc21` (racemic) [Example 26, rac-2,3-Dihydro-furo[2,3-b]pyridine-3-carboxylic acid 2,4-dichloro-6-methoxy-benzylamide], the IC50 was 25.6 nM.
`Cc1c(Cl)cccc1CNC(=O)C1CCOc2ncccc21` (racemic) [Example 31, rac-3,4-Dihydro-2H-pyrano[2,3-b]pyridine-4-carboxylic acid 3-chloro-2-methyl-benzylamide] showed an IC50 of 16 nM.
For `O=C(NCc1ccc(F)cc1Cl)C1CCOc2ncccc21` (racemic) [Example 32, rac-3,4-Dihydro-2H-pyrano[2,3-b]pyridine-4-carboxylic acid 2-chloro-4-fluoro-benzylamide], the IC50 was 25 nM.
`O=C(NCc1ccc(Oc2ccccc2)cc1)C1CCOc2ncccc21` (racemic) [Example 33, rac-3,4-Dihydro-2H-pyrano[2,3-b]pyridine-4-carboxylic acid 4-phenoxy-benzylamide] was tested, and the IC50 was 255 nM.
For `O=C(NCc1cccc(Cl)c1Cl)C1CCOc2ncccc21` (racemic) [Example 34, rac-3,4-Dihydro-2H-pyrano[2,3-b]pyridine-4-carboxylic acid 2,3-dichloro-benzylamide], the IC50 was 10.7 nM.
For `O=C(NCc1ccc(Cl)cc1)C1CCOc2ncccc21` (racemic) [Example 35, rac-3,4-Dihydro-2H-pyrano[2,3-b]pyridine-4-carboxylic acid 4-chloro-benzylamide], the IC50 was 475 nM.
`O=C(NCc1ccc(C(F)(F)F)cc1)C1CCOc2ncccc21` (racemic) [Example 36, rac-3,4-Dihydro-2H-pyrano[2,3-b]pyridine-4-carboxylic acid 4-trifluoromethyl-benzylamide] gave an IC50 of 334 nM.
In the case of `O=C(NCCc1ccc(Cl)cc1Cl)C1CCOc2ncccc21` (racemic) [Example 38, rac-3,4-Dihydro-2H-pyrano[2,3-b]pyridine-4-carboxylic acid [2-(2,4-dichloro-phenyl)-ethyl]-amide], the IC50 is reported as 67.1 nM.
Compound `O=C(NCc1ccc(Cl)cc1Cl)C1CCOc2ncccc21` (racemic) [Example 39, rac-3,4-Dihydro-2H-pyrano[2,3-b]pyridine-4-carboxylic acid 2,4-dichloro-benzylamide] has an IC50 of 11.8 nM.
In the case of `O=C(NCc1cccc(C(F)(F)F)c1Cl)C1CCOc2ncccc21` (racemic) [Example 40, rac-3,4-Dihydro-2H-pyrano[2,3-b]pyridine-4-carboxylic acid 2-chloro-3-trifluoromethyl-benzylamide], the IC50 is reported as 2.7 nM.
`Cc1c(Cl)cccc1CNC(=O)C1COc2ncccc21` (racemic) [Example 42, rac-2,3-Dihydro-furo[2,3-b]pyridine-3-carboxylic acid 3-chloro-2-methyl-benzylamide] showed an IC50 of 46.9 nM.
`O=C(NCc1ccc(F)cc1Cl)C1COc2ncccc21` (racemic) [Example 43, rac-2,3-Dihydro-furo[2,3-b]pyridine-3-carboxylic acid 2-chloro-4-fluoro-benzylamide] was tested, and the IC50 was 86.8 nM.
`O=C(NCc1ccc(Oc2ccccc2)cc1)C1COc2ncccc21` (racemic) [Example 44, rac-2,3-Dihydro-furo[2,3-b]pyridine-3-carboxylic acid 4-phenoxy-benzylamide] was tested, and the IC50 was 1120 nM.
With `O=C(NCc1cccc(Cl)c1Cl)C1COc2ncccc21` (racemic) [Example 45, rac-2,3-Dihydro-furo[2,3-b]pyridine-3-carboxylic acid 2,3-dichloro-benzylamide] the IC50 was 37.2 nM.
Compound `O=C(NCc1ccc(Cl)cc1)C1COc2ncccc21` (racemic) [Example 46, rac-2,3-Dihydro-furo[2,3-b]pyridine-3-carboxylic acid 4-chloro-benzylamide] has an IC50 of 795 nM.
In the case of `CN(Cc1ccc(Cl)cc1)C(=O)C1COc2ncccc21` (racemic) [Example 48, rac-2,3-Dihydro-furo[2,3-b]pyridine-3-carboxylic acid (4-chloro-benzyl)-methyl-amide], the IC50 is reported as 1090 nM.
`O=C(NCCc1ccc(Cl)cc1Cl)C1COc2ncccc21` (racemic) [Example 49, rac-2,3-Dihydro-furo[2,3-b]pyridine-3-carboxylic acid [2-(2,4-dichloro-phenyl)-ethyl]-amide] showed an IC50 of 157 nM.
Compound `O=C(NCc1c(Cl)cc(Cl)cc1OCCO)C1COc2ncccc21` (racemic) [Example 50, rac-2,3-Dihydro-furo[2,3-b]pyridine-3-carboxylic acid 2,4-dichloro-6-(2-hydroxy-ethoxy)-benzylamide] has an IC50 of 54.6 nM.
With `O=C(NCc1c(Cl)cc(Cl)cc1CO)C1CCOc2ncccc21` (racemic) [Example 51, rac-3,4-Dihydro-2H-pyrano[2,3-b]pyridine-4-carboxylic acid 2,4-dichloro-6-hydroxymethyl-benzylamide] the IC50 was 5.6 nM.
In the case of `O=C(NCc1ccc(OC(F)(F)F)c(F)c1)C1CCOc2ncccc21` (racemic) [Example 53, rac-3,4-Dihydro-2H-pyrano[2,3-b]pyridine-4-carboxylic acid 3-fluoro-4-trifluoromethoxy-benzylamide], the IC50 is reported as 1190 nM.
`O=C(NCC1(c2ccccc2)CCCCC1)C1CCOc2ncccc21` (racemic) [Example 54, rac-3,4-Dihydro-2H-pyrano[2,3-b]pyridine-4-carboxylic acid (1-phenyl-cyclohexylmethyl)-amide] showed an IC50 of 25.8 nM.
`O=C(NCc1cccc(C(F)(F)F)c1Cl)C1(F)COc2ncccc21` (racemic) [Example 55, rac-3-Fluoro-2,3-dihydro-furo[2,3-b]pyridine-3-carboxylic acid 2-chloro-3-trifluoromethyl-benzylamide] showed an IC50 of 41.6 nM.
`O=C(NC1(c2ccc(Cl)cc2Cl)CC1)C1CCOc2ncccc21` (racemic) [Example 58, rac-3,4-Dihydro-2H-pyrano[2,3-b]pyridine-4-carboxylic acid [1-(2,4-dichloro-phenyl)-cyclopropyl]-amide] gave an IC50 of 2700 nM.
In the case of `N#Cc1ccc(CNC(=O)C2COc3ncccc32)c(Cl)c1` (racemic) [Example 61, rac-2,3-Dihydro-furo[2,3-b]pyridine-3-carboxylic acid 2-chloro-4-cyano-benzylamide], the IC50 is reported as 389 nM.
With `NC(=O)C1(NC(=O)C2COc3ncccc32)CCCC1` (racemic) [Example 63, rac-2,3-Dihydro-furo[2,3-b]pyridine-3-carboxylic acid (1-carbamoyl-cyclopentyl)-amide] the IC50 was 3850 nM.

Same assay, conditions: read-out: IC50 [nM], antagonistic activities with respect to the P2X7 receptor
Compound `O=C(N[C@H](CO)C1CCCCC1)[C@H]1CCOc2ncccc21` (mixture of isomers) [Example 8, (S)-3,4-Dihydro-2H-pyrano[2,3-b]pyridine-4-carboxylic acid ((S)-1-cyclohexyl-2-hydroxy-ethyl)-amide and (R)-3,4-Dihydro-2H-pyrano[2,3-b]pyridine-4-carboxylic acid ((S)-1-cyclohexyl-2-hydroxy-ethyl)-amide] has an IC50 of 127 nM.
Work on `Cc1cc(Cl)cc(Cl)c1CNC(=O)C1CCOc2c1ccc[n+]2[O-]` (racemic) [Example 41, rac-8-Oxy-3,4-dihydro-2H-pyrano[2,3-b]pyridine-4-carboxylic acid 2,4-dichloro-6-methyl-benzylamide] yielded an IC50 of 16.3 nM.

Same assay, conditions: read-out: IC50 [nM], antagonistic activities with respect to the P2X7 receptor; HEK-293 cells expressing human recombinant P2X7 receptor; YO-PRO-1 fluorescence; ATP 250 μM, 90 minutes; highest concentration 10 μM
For `O=C(N[C@H](CO)c1ccc(Cl)cc1Cl)[C@H]1CCOc2ncccc21` (mixture of isomers) [Example 9, (S)-3,4-Dihydro-2H-pyrano[2,3-b]pyridine-4-carboxylic acid [(S)-1-(2,4-dichloro-phenyl)-2-hydroxy-ethyl]-amide and (R)-3,4-Dihydro-2H-pyrano[2,3-b]pyridine-4-carboxylic acid [(S)-1-(2,4-dichloro-phenyl)-2-hydroxy-ethyl]-amide], the IC50 was 70.8 nM.
